In brackets after ≈: the same amount, converted by molar mass. Counter-ions that a name gives are not always drawn. Like-named read-outs stand apart in the source and are kept apart here.
Tests used:
[1] = test system: Staphylococcus aureus Smith; test: Mouse protection test, S. aureus Smith infection, single dose; assay type: in vivo, ICR mice; Staphylococcus aureus; conditions: for Survivors/Total: single dose
Description: (§1) ICR mice, female, 18-20 grams each.
(§2) Solutions of Win 52,522 and Win 35,439 were prepared by dissolving the appropriate weight of drug in 0.3 to 0.4 ml of 1 N NaOH and then bringing the solutions to the desired volume with distilled water. Methicillin and vancomycin were dissolved directly in distilled water.
Two and one-half ml of pool were added to 247.5 ml of 5% gastric mucin to provide the test inoculum containing 2.1×10^4 cells/ml.
(§3) Mice were inoculated intraperitoneally with 0.5 ml of the bacterial test inoculum.
1. Single dose test--Mice were medicated subcutaneously or orally once (0.5 ml) one-half hour postinfection.
(§4) Deaths were recorded daily for seven days for all tests. Fifty percent protective dose values (PD50's) were calculated using probit analysis [SAS Users Guide: Statistics, 1982 Edition, SAS Institute, Inc., Cary, N.C.].

S. faecalis (8043) = test: In vitro antibacterial MIC/MBC test; assay type: cell-based; conditions: Enterococcus faecalis, ATCC8043
Description: (§5) Win 52,522 and Win 35,439 were solubilized in 0.1 ml of 0.5 N NaOH/mg of compound and diluted in sterile distilled water to 160 mcg/ml. Vancomycin and methicillin were solubilized in sterile distilled water to 1250 mcg/ml of base compound. The stock solutions were sterilized by filtration through membrane filters with a 0.45 μm pore size.
(§6) The bacterial cultures listed in Table I (hereinbelow) were grown overnight at 37° C. in MHB for all cultures except the Streptococcus strains. These were grown in BHI+10% NHS. The overnight broth cultures were adjusted to an optical density of 0.10 (650 nm, B L Spectronic 20) in sterile distilled water and subsequently diluted to 6.7×10^6 cells/ml in MHB or BHI+1% NHS.
(§7) Serial two-fold dilutions of the compound solutions were prepared in MHB (or in BHI+1% NHS for tests with Streptococci) and dispensed into 96-well microtiter trays in a volume of 0.1 ml/well using a Sandy Springs (Bellco Glass Co.) dispenser. The trays were then inoculated with 0.0015 ml of a suspension containing 6.7×10^6 cells/ml of the appropriate inoculum using a MIC-2000 inoculator (Dynatech Corp.) resulting in a final inoculum of approximately 1×10^4 cells/well or 1×10^5 cells/ml. The trays were incubated at 37° C. for 18-20 hours and the minimal inhibitory concentration (MIC), defined as the lowest concentration of compound to inhibit visible bacterial growth, was recorded.
(§8) After the MIC values were recorded, the contents in the microtiter trays were thoroughly mixed on a Bellco Mini-orbital Shaker (Bellco Glass Co.) for 3 min. at a setting of 8. A portion (0.0015 ml) from each well was then transferred via an MIC-2000 inoculator to plates containing MHA or BHI agar+10% NHS. The plates were incubated at 37° C. for 18-20 hrs. The minimal bactericidal concentration (MBC), defined as the lowest concentration of compound that prevented the formation of a recognizable colony on the agar surface, was recorded.

S. pyogenes C203 = test: In vitro antibacterial MIC/MBC test; assay type: cell-based; conditions: Streptococcus pyogenes
Description: as §5, §6, §7, §8

S. aureus 59-81 = test: In vitro antibacterial MIC/MBC test; assay type: cell-based; conditions: Staphylococcus aureus, 5981
Description: as §5, §6, §7, §8

S. epidermidis 1-5-H = test: In vitro antibacterial MIC/MBC test; assay type: cell-based; conditions: Staphylococcus epidermidis, 15H
Description: as §5, §6, §7, §8

S. pyogenes 7948-15 = test: In vitro antibacterial MIC/MBC test; assay type: cell-based; conditions: Streptococcus pyogenes, 794815
Description: as §5, §6, §7, §8

S. pneumoniae Type III = test: In vitro antibacterial MIC/MBC test; assay type: cell-based; conditions: Streptococcus pneumoniae
Description: as §5, §6, §7, §8

S. pyogenes (89) = test: In vitro antibacterial MIC/MBC test; assay type: cell-based; conditions: Streptococcus pyogenes
Description: as §5, §6, §7, §8

Streptococcus sp. = test: In vitro MIC/MBC summary (Table II); assay type: cell-based
Description: as §5, §6, §7, §8

S. aureus = test: In vitro MIC/MBC summary (Table II); assay type: cell-based; conditions: Staphylococcus aureus; for MIC: read-out: MIC Range
Description: as §5, §6, §7, §8

[2] = test system: Staphylococcus aureus 39881 (Methicillin-resistant); test: Mouse protection test, S. aureus 39881 (methicillin-resistant) infection; assay type: in vivo, ICR mice; Staphylococcus aureus; conditions: for Survivors/Total: two doses; for ED50: Staphylococcus aureus, sc, 168 h, read-out: Protective Dose 50% (95% Confidence Limits)
Description: as §1, §2
The culture was streaked onto three Brain Heart Infusion Agar plates and incubated 16 hours at 37° C. The cells were washed off each plate with five ml of saline and the cell suspension was shaken with glass beads for two minutes on a paint shaker. The suspension was diluted with saline so that a […] gave a 44% T reading on a B+L Spectronic 20 (650 nm) calibrated with saline. The stock suspension was diluted 1:24 (10 ml stock suspension+230 ml 5% mucin) to obtain the test inoculum containing 1.55×10^9 cells/ml.
as §3
Mice were medicated twice: at one-half and four hours postinfection. The drugs were administered by both subcutaneous (0.2 ml) and oral (0.5 ml) routes.
as §4

S. edidermidis = test: In vitro MIC/MBC summary (Table II); assay type: cell-based, S. epidermidis; conditions: Staphylococcus epidermidis; for MIC: read-out: MIC Range
Description: as §5, §6, §7, §8

## CN[C@H](CC(C)C)C(=O)N[C@H]1C(=O)N[C@@H](CC(N)=O)C(=O)N[C@H]2C(=O)N[C@H]3C(=O)N[C@H](C(=O)N[C@H](C(=O)O)c4cc(O)cc(O)c4-c4cc3ccc4O)[C@H](O)c3ccc(c(Cl)c3)Oc3cc2cc(c3O[C@@H]2O[C@H](CO)[C@@H](O)[C@H](O)[C@H]2O[C@H]2C[C@](C)(N)[C@H](O)[C@H](C)O2)Oc2ccc(cc2Cl)[C@H]1O [Vancomycin]
[1]; 0.78 mg/kg sc
  Survivors/Total: 2/10
[1]; 1.56 mg/kg sc
  Survivors/Total: 9/10
[1]; 3.13 mg/kg sc
  Survivors/Total: 9/10
[1]; 6.25 mg/kg sc
  Survivors/Total: 10/10
[1]; 12.5 mg/kg sc
  Survivors/Total: 10/10
[1]; Staphylococcus aureus, sc, 168 h, read-out: Protective Dose 50% (95% Confidence Limits)
  ED50: 1.1 mg/kg
S. faecalis (8043)
  MBC: > 125 µg/mL
  MIC: 1 µg/mL (≈ 0.69 µM)
S. pyogenes C203; C203
  MBC: 16 µg/mL (≈ 11 µM)
  MIC: 16 µg/mL (≈ 11 µM)
S. aureus 59-81
  MBC: 1 µg/mL (≈ 0.69 µM)
  MIC: 1 µg/mL (≈ 0.69 µM)
S. epidermidis 1-5-H
  MBC: 2 µg/mL (≈ 1.38 µM)
  MIC: 2 µg/mL (≈ 1.38 µM)
S. pyogenes 7948-15
  MBC: 16 µg/mL (≈ 11 µM)
  MIC: 16 µg/mL (≈ 11 µM)
S. pneumoniae Type III
  MBC: 16 µg/mL (≈ 11 µM)
  MIC: ≤ 0.06 µg/mL
S. pyogenes (89)
  MBC: 16 µg/mL (≈ 11 µM)
  MIC: 16 µg/mL (≈ 11 µM)
Streptococcus sp.; Streptococcus
  MIC50: 2 µg/mL (≈ 1.38 µM)
  MIC90: 16 µg/mL (≈ 11 µM)
Streptococcus sp.; Streptococcus, read-out: MBC 50%
  MBC: 16 µg/mL (≈ 11 µM)
Streptococcus sp.; Streptococcus, read-out: MBC 90%
  MBC: > 125 µg/mL
Streptococcus sp.; Streptococcus, read-out: MIC Range
  MIC: 0.06 to 16 µg/mL (≈ 0.0414 to 11 µM)
S. aureus; 15 S. aureus strains, read-out: MBC 50%
  MBC: 1 µg/mL (≈ 0.69 µM)
S. aureus; 15 S. aureus strains, read-out: MBC 90%
  MBC: 1 µg/mL (≈ 0.69 µM)
S. aureus; 15 S. aureus strains, read-out: MBC Range
  MBC: 0.5 to 1 µg/mL (≈ 0.345 to 0.69 µM)
S. aureus; 15 S. aureus strains, read-out: MIC 50%
  MIC50: 1 µg/mL (≈ 0.69 µM)
S. aureus; 15 S. aureus strains, read-out: MIC 90%
  MIC90: 1 µg/mL (≈ 0.69 µM)
S. aureus; 15 S. aureus strains
  MIC: 0.5 to 1 µg/mL (≈ 0.345 to 0.69 µM)
[2]; 6.25 mg/kg sc
  Survivors/Total: 0/10
[2]; 12.5 mg/kg sc
  Survivors/Total: 1/10
[2]; 25 mg/kg sc
  Survivors/Total: 9/10
[2]; 50 mg/kg sc
  Survivors/Total: 10/10
[2]
  ED50: 17.7 mg/kg
S. edidermidis
  MIC50: 1 µg/mL (≈ 0.69 µM)
  MIC90: 1 µg/mL (≈ 0.69 µM)
  MIC: 1 to 2 µg/mL (≈ 0.69 to 1.38 µM)
S. edidermidis; read-out: MBC 50%
  MBC: 1 µg/mL (≈ 0.69 µM)
S. edidermidis; read-out: MBC 90%
  MBC: 2 µg/mL (≈ 1.38 µM)
S. edidermidis; read-out: MBC Range
  MBC: 1 to 2 µg/mL (≈ 0.69 to 1.38 µM)

## COc1cccc(OC)c1C(=O)N[C@@H]1C(=O)N2[C@@H]1SC(C)(C)[C@@H]2C(=O)O [Methicillin, 6-(2,6-dimethoxybenzamido)penicillanic acid sodium salt]
S. faecalis (8043); S. faecalis ATCC No. 8043, read-out: MBC
  MBC: > 125 µg/mL
S. faecalis (8043); S. faecalis ATCC No. 8043, read-out: MIC
  MIC: > 125 µg/mL
S. pyogenes C203; S. pyogenes C203, read-out: MBC
  MBC: 0.125 µg/mL
S. pyogenes C203; S. pyogenes C203, read-out: MIC
  MIC: 0.125 µg/mL
S. aureus 59-81; S. aureus 59-81, read-out: MBC
  MBC: 64 µg/mL
S. aureus 59-81; S. aureus 59-81, read-out: MIC
  MIC: 32 µg/mL
S. epidermidis 1-5-H; S. epidermidis 1-5-H, read-out: MBC
  MBC: 2 µg/mL
S. epidermidis 1-5-H; S. epidermidis 1-5-H, read-out: MIC
  MIC: 1 µg/mL
S. pyogenes 7948-15; S. pyogenes 7948-15, read-out: MBC
  MBC: 0.125 µg/mL
S. pyogenes 7948-15; S. pyogenes 7948-15, read-out: MIC
  MIC: 0.25 µg/mL
S. pneumoniae Type III; S. pneumoniae Type III, read-out: MBC
  MBC: 0.125 µg/mL
S. pneumoniae Type III; S. pneumoniae Type III, read-out: MIC
  MIC: 0.125 µg/mL
S. pyogenes (89); S. pyogenes SWRI No. 89, read-out: MBC
  MBC: ≤ 0.06 µg/mL
S. pyogenes (89); S. pyogenes SWRI No. 89, read-out: MIC
  MIC: ≤ 0.06 µg/mL
Streptococcus sp.; 9 Streptococcus sp. strains, read-out: MBC 50%
  MBC: 0.125 µg/mL
Streptococcus sp.; 9 Streptococcus sp. strains, read-out: MBC 90%
  MBC: 64 µg/mL
Streptococcus sp.; 9 Streptococcus sp. strains, read-out: MIC 50%
  MIC50: 0.25 µg/mL
Streptococcus sp.; 9 Streptococcus sp. strains, read-out: MIC 90%
  MIC90: 64 µg/mL
S. aureus
  MIC50: 2 µg/mL
  MIC90: 8 µg/mL
  MIC: 1 to 125 µg/mL
S. aureus; read-out: MBC 90%
  MBC: > 64 µg/mL
[2]; 25 mg/kg sc
  Survivors/Total: 0/10
[2]; 50 mg/kg sc
  Survivors/Total: 0/10
[2]; 100 mg/kg sc
  Survivors/Total: 0/10
[2]; two doses one-half and four hours postinfection
  ED50: > 100 mg/kg
S. edidermidis; 5 S. edidermidis strains, read-out: MBC 50%
  MBC: 4 µg/mL
S. edidermidis; 5 S. edidermidis strains, read-out: MBC 90%
  MBC: 4 µg/mL
S. edidermidis; 5 S. edidermidis strains, read-out: MBC Range
  MBC: 2 to 4 µg/mL
S. edidermidis; 5 S. edidermidis strains, read-out: MIC 50%
  MIC50: 2 µg/mL
S. edidermidis; 5 S. edidermidis strains, read-out: MIC 90%
  MIC90: 4 µg/mL
S. edidermidis; 5 S. edidermidis strains
  MIC: 1 to 4 µg/mL
